Measured values from patent US20100152434A1, “Protein Kinase-binding Nucleosides and Associated Methods” (priority 2007, published 2010).
Read-outs that look alike come from different tables or passages of the source.

Columns and labels:
OVCAR-5 = assay: cells; conditions: Homo sapiens
SR = assay: cells; conditions: Homo sapiens, 48 h
MOLT-4 = assay: cells; conditions: Homo sapiens, MOLT-4, 48 h
MALME-3M = assay: cells; conditions: Homo sapiens
NCI-H23 = assay: cells; conditions: Homo sapiens
T-47D = assay: cells; conditions: Homo sapiens, T47D
SF-295 [1] = assay: cells; conditions: Homo sapiens
MDA-MB-231/ATCC = assay: cells; conditions: Homo sapiens
SF-295 [2] = system: SF-295
HOP-62 = assay: cells; conditions: Homo sapiens
NCI/ADR-RES = assay: cells; conditions: Homo sapiens
BT-549 = assay: cells; conditions: Homo sapiens
SNB-75 = assay: cells; conditions: Homo sapiens
SK-OV-3 = assay: cells; conditions: Homo sapiens
[3] = Log10 Concentration −4.0, Molar
[4] = Log10 Concentration −5.0, Molar
[5] = Log10 Concentration −6.0, Molar
[6] = Log10 Concentration −7.0, Molar
[7] = Log10 Concentration −8.0, Molar

CCOC(=O)C[C@@H]1C(O[Si](C)(C)C(C)(C)C)[C@H](n2cnc3c(NC(=O)Nc4ccccc4)ncnc32)O[C@@H]1CNC(=O)NC (stereo partly shown) [Compound 10]
TGI (OVCAR-8; 48 h): 7.72E−5 Molar
Percent Growth (OVCAR-8; [3]): −4%
Percent Growth (OVCAR-8; [4]): 29%
Percent Growth (OVCAR-8; [5]): 98%
Percent Growth (OVCAR-8; [6]): 100%
Percent Growth (OVCAR-8; [7]): 99%
TGI (NCI-H322M; NCI-H322M, 48 h): >1.00E−4 Molar
Percent Growth (NCI-H322M; NCI-H322M, Log10 Concentration −4.0, Molar): 72%
Percent Growth (NCI-H322M; NCI-H322M, Log10 Concentration −5.0, Molar): 89%
Percent Growth (NCI-H322M; NCI-H322M, Log10 Concentration −6.0, Molar): 95%
Percent Growth (NCI-H322M; NCI-H322M, Log10 Concentration −7.0, Molar): 90%
Percent Growth (NCI-H322M; NCI-H322M, Log10 Concentration −8.0, Molar): 105%
GI50 (OVCAR-5; OVCAR-5, 48 h): 31.1 µM
CC50 (OVCAR-5; OVCAR-5, 48 h, read-out: LC50): > 100 µM
GI50 (SR): 2230 nM
CC50 (SR; read-out: LC50): > 100 µM
TGI (HCT-15; 48 h): >1.00E−4 Molar
Percent Growth (HCT-15; [3]): 43%
Percent Growth (HCT-15; [4]): 47%
Percent Growth (HCT-15; [5]): 94%
Percent Growth (HCT-15; [6]): 96%
Percent Growth (HCT-15; [7]): 99%
GI50 (MOLT-4): 2390 nM
CC50 (MOLT-4; read-out: LC50): > 100 µM
TGI (HT29; 48 h): >1.00E−4 Molar
Percent Growth (HT29; [3]): 3%
Percent Growth (HT29; [4]): 17%
Percent Growth (HT29; [5]): 104%
Percent Growth (HT29; [6]): 105%
Percent Growth (HT29; [7]): 104%
TGI (U251; 48 h): 2.09E−5 Molar
Percent Growth (U251; [3]): −61%
Percent Growth (U251; [4]): 28%
Percent Growth (U251; [5]): 94%
Percent Growth (U251; [6]): 95%
Percent Growth (U251; [7]): 98%
GI50 (MALME-3M; 48 h): 10.3 µM
CC50 (MALME-3M; 48 h, read-out: LC50): > 100 µM
GI50 (NCI-H23; NCI-H23, 48 h): 33.3 µM
CC50 (NCI-H23; NCI-H23, 48 h, read-out: LC50): > 100 µM
Percent Growth (HOP-92; [3]): −61%
Percent Growth (HOP-92; [4]): −32%
Percent Growth (HOP-92; [5]): 12%
Percent Growth (HOP-92; [6]): −1%
Percent Growth (HOP-92; [7]): 4%
GI50 (T-47D; 48 h): 2550 nM
CC50 (T-47D; 48 h, read-out: LC50): > 100 µM
Percent Growth (HL-60(TB); [3]): 22%
Percent Growth (HL-60(TB); [4]): −5%
Percent Growth (HL-60(TB); [5]): 101%
Percent Growth (HL-60(TB); [6]): 110%
Percent Growth (HL-60(TB); [7]): 85%
GI50 (SF-295 [1]; SF-295, 48 h): 5.73 µM
CC50 (SF-295 [1]; SF-295, 48 h, read-out: LC50): > 100 µM
GI50 (MDA-MB-231/ATCC; MDA-MB-231, 48 h): 3.96 µM
CC50 (MDA-MB-231/ATCC; MDA-MB-231, 48 h, read-out: LC50): > 100 µM
TGI (SF-295 [2]; 48 h): >1.00E−4 Molar
Percent Growth (SF-295 [2]; [3]): 24%
Percent Growth (SF-295 [2]; [4]): 38%
Percent Growth (SF-295 [2]; [5]): 88%
Percent Growth (SF-295 [2]; [6]): 91%
Percent Growth (SF-295 [2]; [7]): 91%
GI50 (HOP-62; HOP-62, 48 h): 8.96 µM
CC50 (HOP-62; HOP-62, 48 h, read-out: LC50): 73.1 µM
TGI (NCI-H522; 48 h): 8.57E−5 Molar
Percent Growth (NCI-H522; [3]): −2%
Percent Growth (NCI-H522; [4]): 32%
Percent Growth (NCI-H522; [5]): 83%
Percent Growth (NCI-H522; [6]): 85%
Percent Growth (NCI-H522; [7]): 89%
TGI (K-562; 48 h): 3.29E−5 Molar
Percent Growth (K-562; [3]): −17%
Percent Growth (K-562; [4]): 19%
Percent Growth (K-562; [5]): 89%
Percent Growth (K-562; [6]): 93%
Percent Growth (K-562; [7]): 96%
GI50 (NCI/ADR-RES; 48 h): > 100 µM
CC50 (NCI/ADR-RES; 48 h, read-out: LC50): > 100 µM
TGI (OVCAR-4; 48 h): >1.00E−4 Molar
Percent Growth (OVCAR-4; [3]): 16%
Percent Growth (OVCAR-4; [4]): 53%
Percent Growth (OVCAR-4; [5]): 95%
Percent Growth (OVCAR-4; [6]): 103%
Percent Growth (OVCAR-4; [7]): 98%
TGI (KM12; 48 h): 2.09E−5 Molar
Percent Growth (KM12; [3]): −28%
Percent Growth (KM12; [4]): 13%
Percent Growth (KM12; [5]): 105%
Percent Growth (KM12; [6]): 112%
Percent Growth (KM12; [7]): 107%
GI50 (BT-549; BT-549, 48 h): > 100000 nM
CC50 (BT-549; BT-549, 48 h, read-out: LC50): > 100 µM
GI50 (SNB-75; SNB-75, 48 h): 4.56 µM
CC50 (SNB-75; SNB-75, 48 h, read-out: LC50): > 100 µM
GI50 (SK-OV-3; SK-OV-3, 48 h): 21 µM
CC50 (SK-OV-3; SK-OV-3, 48 h, read-out: LC50): > 100 µM
TGI (SW-620; 48 h): 2.84E−5 Molar
Percent Growth (SW-620; [3]): −33%
Percent Growth (SW-620; [4]): 28%
Percent Growth (SW-620; [5]): 97%
Percent Growth (SW-620; [6]): 94%
Percent Growth (SW-620; [7]): 97%
TGI (IGROV1; 48 h): 1.80E−5 Molar
Percent Growth (IGROV1; [3]): −58%
Percent Growth (IGROV1; [4]): 20%
Percent Growth (IGROV1; [5]): 93%
Percent Growth (IGROV1; [6]): 94%
Percent Growth (IGROV1; [7]): 94%

CNC(=O)NC[C@H]1O[C@@H](n2cnc3c(NC(=O)Nc4ccccc4)ncnc32)C(O[Si](C)(C)C(C)(C)C)[C@H]1O[Si](C)(C)C(C)(C)C (stereo partly shown) [Compound 25, 2′,3′-Bis-O-(tert-butyldimethylsilyl)-5-deoxy-5′-[(N-methylcarbamoyl)amino]-N^6-(N-phenylcarbamoyl)adenosine]
TGI (OVCAR-8): 4.01E−5 Molar
Percent Growth (OVCAR-8; [3]): −9%
Percent Growth (OVCAR-8; [4]): 13%
Percent Growth (OVCAR-8; [5]): 106%
Percent Growth (OVCAR-8; [6]): 106%
Percent Growth (OVCAR-8; [7]): 108%
TGI (NCI-H322M): >1.00E−4 Molar
Percent Growth (NCI-H322M; […], Log10 Concentration −4.0 Molar): 21%
Percent Growth (NCI-H322M; […], Log10 Concentration −5.0 Molar): 39%
Percent Growth (NCI-H322M; […], Log10 Concentration −6.0 Molar): 105%
Percent Growth (NCI-H322M; […], Log10 Concentration −7.0 Molar): 106%
Percent Growth (NCI-H322M; […], Log10 Concentration −8.0 Molar): 102%
GI50 (OVCAR-5; OVCAR-5): 5.24 µM
IC50 (OVCAR-5; OVCAR-5): > 100 µM
TGI (HCT-15): >1.00E−4 Molar
Percent Growth (HCT-15; [3]): 6%
Percent Growth (HCT-15; [4]): 11%
Percent Growth (HCT-15; [5]): 100%
Percent Growth (HCT-15; [6]): 106%
Percent Growth (HCT-15; [7]): 105%
TGI (HT29): 3.73E−6 Molar
Percent Growth (HT29; [3]): −100%
Percent Growth (HT29; [4]): −80%
Percent Growth (HT29; [5]): 107%
Percent Growth (HT29; [6]): 104%
Percent Growth (HT29; [7]): 102%
TGI (U251): 1.08E−5 Molar
Percent Growth (U251; [3]): −46%
Percent Growth (U251; [4]): 2%
Percent Growth (U251; [5]): 93%
Percent Growth (U251; [6]): 102%
Percent Growth (U251; [7]): 102%
GI50 (MALME-3M): 2.98 µM
IC50 (MALME-3M): > 100 µM
GI50 (NCI-H23; NCI-H23): 3.17 µM
IC50 (NCI-H23; NCI-H23): 85 µM
TGI (HOP-92): 5.16E−6 Molar
Percent Growth (HOP-92; [3]): −50%
Percent Growth (HOP-92; [4]): −25%
Percent Growth (HOP-92; [5]): 69%
Percent Growth (HOP-92; [6]): 80%
Percent Growth (HOP-92; [7]): 85%
GI50 (T-47D): 2870 nM
IC50 (T-47D): > 100 µM
GI50 (SF-295 [1]; SF-295): 3.84 µM
IC50 (SF-295 [1]; SF-295): > 100 µM
GI50 (MDA-MB-231/ATCC; MDA-MB-231): 2.81 µM
IC50 (MDA-MB-231/ATCC; MDA-MB-231): 28.3 µM
TGI (SF-295 [2]): 3.18E−5 Molar
Percent Growth (SF-295 [2]; [3]): −7%
Percent Growth (SF-295 [2]; [4]): 7%
Percent Growth (SF-295 [2]; [5]): 111%
Percent Growth (SF-295 [2]; [6]): 107%
Percent Growth (SF-295 [2]; [7]): 103%
GI50 (HOP-62; HOP-62): 49.8 µM
IC50 (HOP-62; HOP-62): 49 µM
TGI (NCI-H522): 7.14E−6 Molar
Percent Growth (NCI-H522; [3]): −49%
Percent Growth (NCI-H522; [4]): −15%
Percent Growth (NCI-H522; [5]): 90%
Percent Growth (NCI-H522; [6]): 90%
Percent Growth (NCI-H522; [7]): 92%
GI50 (NCI/ADR-RES): 3.72 µM
IC50 (NCI/ADR-RES): > 100 µM
TGI (OVCAR-4): 4.39E−5 Molar
Percent Growth (OVCAR-4; [3]): −4%
Percent Growth (OVCAR-4; [4]): 7%
Percent Growth (OVCAR-4; [5]): 100%
Percent Growth (OVCAR-4; [6]): 106%
Percent Growth (OVCAR-4; [7]): 106%
TGI (KM12): 4.41E−6 Molar
Percent Growth (KM12; [3]): −74%
Percent Growth (KM12; [4]): −66%
Percent Growth (KM12; [5]): 107%
Percent Growth (KM12; [6]): 111%
Percent Growth (KM12; [7]): 104%
GI50 (BT-549; BT-549): 2920 nM
IC50 (BT-549; BT-549): > 100 µM
GI50 (SNB-75; SNB-75): 2.43 µM
IC50 (SNB-75; SNB-75): > 100 µM
GI50 (SK-OV-3; SK-OV-3): 5.88 µM
IC50 (SK-OV-3; SK-OV-3): > 100 µM
TGI (IGROV1): 7.76E−6 Molar
Percent Growth (IGROV1; [3]): −39%
Percent Growth (IGROV1; [4]): −12%
Percent Growth (IGROV1; [5]): 98%
Percent Growth (IGROV1; [6]): 99%
Percent Growth (IGROV1; [7]): 100%
